Holding throughout (assay type): in vivo
In assay [1] the test system is mice. Briefly: Pedestal test (tranquilizing effect; mice staying on the pedestal for more than 1 minute). The settings on record: Mus musculus, ip, 1 min, intraperitoneal injection, stay on the pedestal for more than 1 minute, read-out: ED50, P (pedestal test). The procedure:
(§1) The free bases and acid addition salts of the novel compounds of Formula I are useful as central nervous system (CNS) depressants when administered to humans and animals.
(§2) Tranquilizing effects of compounds of this invention are shown by the following tests in mice:
Pedestal test: The untreated mouse leaves a standard pedestal in less than a minute to climb back to the floor of the standard mouse box. Tranquilized mice will stay on the pedestal for more than 1 minute.

Assay [2] deals with mice. Briefly: Dish test (tranquilizing effect; mice remaining in Petri dish for more than 3 minutes). The settings on record: Mus musculus, ip, 0.05 h, intraperitoneal injection, 50 percent of the mice remain in the dish more than 3 minutes, read-out: ED50, D (dish test). The procedure:
as §1, §2
Dish test: Mice in Petri dishes (10 cm. diameter, 5 cm. high, partially embedded in wood shavings), climb out in a very short time, when not treated. Mice remaining in the dish for more than 3 minutes indicates tranquilization. ED50 equals the dose of test compound at which 50 percent of the mice remain in the dish.

Assay [3] has as its system mice. The assay can be described thus: Nicotine antagonism test (nicotine salicylate 2 mg./kg. overstimulation, convulsions, tonic extensor fits, death). The settings on record: Mus musculus, ip, intraperitoneal injection 30 minutes before nicotine salicylate 2 mg./kg., (3) = death, read-out: ED50, Ni (nicotine antagonism (3) test). How it is done: as §2
Nicotine antagonism test: Mice in a group of 6 are injected with the test compound. Thirty minutes later the mice including control (untreated) mice are injected with nicotine salicylate (2 mg./kg.). The control mice show overstimulation, i.e., (1) running convulsions followed by (2) tonic extensor fits; followed by (3) death.
Ni = nicotine antagonism (3) test

Assay [4] deals with mice. The assay can be described thus: Chimney test (tranquilizing effect; ability of mice to back up and out of a vertical glass cylinder within 30 seconds). The settings on record: Mus musculus, ip, intraperitoneal injection, 50 percent of the mice failed within 30 seconds, read-out: ED50, Ch (chimney test).
Excerpt: as §1, §2
Chimney test: [Med. Exp. 4, 145 (1961)]: The test determines the ability of mice to back up and out of a verticle glass cylinder within 30 seconds. At the effective dosage, 50 percent of the mice failed doing it.

In the next assay the test system is rats. The assay can be described thus: Hypotensive activity (manner of Weeks and Jones, Proc. Soc. Exp. Biol. and Med. 104, 646 (1960)). The settings on record: Rattus norvegicus; oral administration to rats; read-out: MED100 (minimal effective dose), hypotensive. An excerpt: The free bases and pharmacologically acceptable acid addition salts of the compounds of Formula I (a, b and c) are also useful in lowering blood pressure when administered to humans and animals. This activity makes them useful in the treatment of essential hypertension. […] Exp. Biol. and Med. 104, 646 (1960). The following compounds typical of this invention have (by oral administration to rats) MED100 (minimal effective dose) as shown in the table below.

The structures appear in SMILES notation.

In the case of `Cl.O=C(CCCNC1CCC2(CCc3ccccc3C2)CC1)c1ccc(F)cc1` (centres unmarked) [4'-Fluoro-4-[[3',4'-dihydrospiro[cyclohexane-1,2'(1'H)-naphthalen]-4-yl]amino]butyrophenone hydrochloride], the ED50 (commonly the midpoint of the dose-response relation) with mice [1] was found to be 12.5 mg/kg; with mice [2], 9.9 mg/kg; with mice [3], 7 mg/kg; in the assay with mice [4], 9.9 mg/kg.

Take `Cl.O=C(CCCNC1CCC2(CCCc3ccccc32)CC1)c1ccc(F)cc1` (centres unmarked) [4'-Fluoro-4-[3',4'-dihydrospiro[cyclohexane-1,1'(2'H)-naphthalen]-4-ylamino]butyrophenone hydrochloride]: the ED50 came to 16 mg/kg with mice [1], 10 mg/kg in the assay on mice [2], 5 mg/kg in the assay with mice [3] and 25 mg/kg in the assay with mice [4].

For the compound `CN(CCCC(=O)c1ccc(F)cc1)C1CCC2(CC1)Cc1ccccc1C2.Cl` [4'-Fluoro-4-[methyl[spiro[cyclohexane-1,2'-indan]-4-yl]amino]butyrophenone hydrochloride], the ED50 in the assay with mice [1] came out at 9 mg/kg; with mice [2] it was 3.6 mg/kg; in the assay on mice [3], 4 mg/kg; in the assay with mice [4], 16 mg/kg.

Turning to `Cl.O=C(CCCNC1CCC2(CC1)Cc1ccccc1C2O)c1ccc(F)cc1` (centres unmarked) [4'-Fluoro-4-[[1'-hydroxyspiro[cyclohexane-1,2'-indan]-4-yl]amino]butyrophenone hydrochloride], the minimal effective dose (as a rule, the lowest level tested that produced the effect sought) with rats turned out to be 50 mg/kg.

Turning to `Cl.O=C(CCCNC1CCC2(CC1)Cc1ccccc1C2)c1ccc(F)cc1` [4'-Fluoro-4-[[spiro[cyclohexane-1,2'-indan]-4-yl]amino]butyrophenone hydrochloride], the minimal effective dose in the assay with rats came out at 50 mg/kg.

For the origin of these results see patent US3932425A, “Benzospiran derivatives” (The Upjohn Company, priority 1974, dated 1976).
